| Compound | melting point [°C] |
| --- | --- |
| CC1(C)OC(=O)Nc2c(Br)cc(-c3ccc(F)c(Cl)c3)cc21 | 194 to 195 |
| CCCCCCCCCCCC(=O)OCC(COCc1ccccc1)OC(=O)CCCCCCCCCCC (centres undefined) | 30 to 31 |
| CCOC(=O)Cn1cccc(O)c1=O | 141 to 151 |
| NC(=O)N1CCC(Oc2c(F)c(F)c(F)c(F)c2F)CC1 | 170 to 172 |
| COCc1c[nH]c2c([N+](=O)[O-])cccc2c1=O | > 250 |
| CCCCCCCCCCCCCCCCCCOc1ccc(O)c(C(=O)N(N)C(=O)OCCCCCCCC)c1 | 85 |
| O=C(O)c1c[nH]c2c(OCC3CN(Cc4ccccc4)CCN3Cc3ccccc3)c(F)c(F)cc2c1=O (centres undefined) | 158 to 159 |
| c1ccc(OC(Oc2cccc3ccccc23)Oc2cccc3ccccc23)cc1 | 88.5 to 90 |
| C=CCC(C#N)(C#N)Cc1ccc(C(F)(F)F)cc1 | 80.2 |
| O=C1CCCC(=NNc2ccccc2)C1 | 187 to 189 |
| N#Cc1cnc2cc(C=O)sc2c1Cl | 188 to 189 |
| CCOCOc1c(-c2ccc(C(=O)Nc3ccc(OC(C)=O)cc3)cc2)ccc2cc(OC)c(C34CC5CC(CC(C5)C3)C4)cc12 | 206 to 207 |
| COc1nc(C)c(C)nc1NC(=O)N1CCN(c2cc(F)cc(F)c2)CC1 | 153 to 154 |
| Cc1cc(CCCCCOc2c(Cl)cc(-c3noc(C(F)(F)F)n3)cc2Cl)on1 | 42 to 43 |
| COc1ccc(N2CCN(C(=O)Oc3ccc(Oc4ccc(C(F)(F)F)cn4)cc3)CC2)c(OC)c1 | 98 to 99 |
| COc1cc(-c2cnc3[nH]cc(C(=O)C4(C)CCCCC4)c3n2)cc(OC)c1OC | 246 to 247 |
| O=S1(=O)N=C(NCC2CC2)Nc2ccc(Cl)cc21 | 288 to 290 |
| Cn1c(=O)sc2cc(N)ccc21 | 188 to 190 |
| CCCC12CCC(CC(=O)O)(CC1)CC2 | 85 |
| N#Cc1ccnc(Nc2ccc(-n3nc(C(F)(F)F)cc3C(F)(F)F)cc2)c1 | 152 to 153 |
| O=C(NCCN1CCCC1)N1CCN(c2ccc(F)cc2)CC1 | 100 to 102 |
| O=C1N(c2cc(Cl)cc(Cl)c2)C(=O)C2(Cc3ccc(Br)cc3)CC(F)(F)CN12 (centres undefined) | 160 |
| COc1ccc(C2=CCN(Cc3n[nH]c4c(F)cccc34)CC2)cc1 | 183 to 185 |
| COc1ccc(NS(=O)(=O)C(F)(F)F)cc1CC1C(=O)c2cc(OCc3nc4cc(F)c(F)cc4s3)ccc2OC1(C)C (centres undefined) | 198 to 200 |
| COc1cc2c3c(n(C)c(=O)c2cc1OC)-c1cc2c(cc1C3=CCCCBr)OCO2 | 197 to 199 |
| CCCCCCCCCC(=O)C1C(=O)CC(C)OC1=O (centres undefined) | 62 to 63 |
| FC(F)(F)CNC1=NN(c2ccc(Cl)c(Cl)c2)CC1 | 93 to 94 |
| CC(=CC(=O)O)C[N+](=O)[O-] | 85 |

| Compound | melting point [°C] |
| --- | --- |
| O=C(Nc1cc(=O)n(-c2c(Cl)cc(C(F)(F)F)cc2Cl)[nH]1)c1ccccc1 | 288 |
| c1ccc2cc(NC3=NCC4(CN5CCC4CC5)O3)ncc2c1 (centres undefined) | 196 to 200 |
| CCc1cc(C(=O)OC)n(C)n1 | 162 to 165 |
| Fc1c(OCc2ccccc2)ccc(-c2ncc(Br)cn2)c1F | 138 |
| NC(=O)c1cc2c(c3nc(O)c(O)nc13)CCCC2 | > 300 |
| CCCCCCCCCCCCCCCCCCNC(=O)OCC(CN(C(C)=O)S(=O)(=O)CCCCl)NC(C)=O (centres undefined) | 116 to 117 |
| COc1ccc2cc(C(=O)Cl)oc2c1 | 96 to 99 |
| C=CCSc1nc2cc(C)c(C)cc2[nH]1 | 119 to 120 |
| Cc1ccc2[nH]c(=O)cc(CCCl)c2c1 | 215 to 216 |
| COc1ccc(Cc2oc3ccc(OC)cc3c2CC#N)cc1 | 83 |
| CCOc1nc(=O)n(-c2cc(C(=O)OC)c(Cl)cc2F)c(=O)n1C | 45 to 47 |
| Cc1c(N2CC(O)C2)c(F)cc2c(=O)c(C(=O)O)cn(-c3cc(N)c(F)cc3F)c12 | 206 to 208 |
| CN1Cc2ccccc2N(C)S1(=O)=O | 59 to 60 |
| O=c1oc(-c2ccc(-c3nc4ccccc4c(=O)o3)cc2)nc2ccccc12 | > 300 |
| N#Cc1ccc(CC23CCCN2C(=O)N(c2cc(Cl)c(N)c(Cl)c2)C3=O)cc1 (centres undefined) | 103 |
| CN1CCN(c2cccc3ccc(Nc4ccc([N+](=O)[O-])cn4)cc23)CC1 | 121 to 125 |
| CNC(=O)C(c1ccc(F)cc1)c1ccc(F)cc1 | 179 to 180 |
| Cc1ccc(P2(=O)c3ccccc3CN2c2ccccc2)cc1 (centres undefined) | 180 to 181 |
| CCC1Cc2cc(OC)ccc2C2CCC3(C)C(=O)CC(C)C3C12 (centres undefined) | 120 to 122 |
| COc1ccc2c(Cc3c(Cl)cncc3Cl)nncc2c1C#Cc1ccccc1 | 217 to 219 |
| CCN1C(=O)C(C)(C)C(=O)Nc2cc(C#N)ccc21 | 215 to 218 |
| Fc1cccc(F)c1N1CS/C1=N/N=C\c1ccc(-c2ncn(-c3ccc(OC(F)(F)F)cc3)n2)cc1 | 144 to 146 |
| COC(=O)c1cccn1-c1cc2[nH]c(=O)c(=O)n(C3CCCCC3)c2cc1[N+](=O)[O-] | 211 to 212 |
| COc1nc2ccccc2cc1NC(=S)N1CCN(c2cc(F)cc(F)c2)CC1 | 140 to 142 |
| OCC1(CO)CN(Cc2ccccc2)C1 | 86 to 87 |
| COc1ccc(C(=O)N2CCC(N3CC4(CCN(Cc5ccccc5)CC4)c4ccccc43)c3ccccc32)cc1OC (centres undefined) | 155 to 157 |
| O=C(Nc1ccc(F)cc1)OC1CCCNC1 (centres undefined) | 147 to 148 |

The remaining lines, values ahead:

| melting point [°C] | Compound |
| --- | --- |
| 203 to 204 | Cc1ccc(-c2[nH]c(-c3ccccc3[N+](=O)[O-])nc2C(=O)Nc2nccs2)cc1 |
| 103 | COC(=O)N(C)CCCCCC(=O)OC[C@@H]1CC(c2ccc(-c3ccc(N4C[C@H](Cn5ccnn5)OC4=O)cc3F)cn2)=NO1 |
| 115 | CN1CCCC1=C(C#N)C(=O)c1ccc(Cl)cc1 |
| 56 to 57 | CCOC(=O)c1c(C)cc2cnc(-c3ccccc3C)nc2c1C |
| 141 to 147 | CN1C(=O)CC[C@]2(C)c3ccc(-c4ccc(C(C)(C)C)cc4)cc3CC[C@@H]12 |
| 151 to 153 | CCCCCCCCCOc1cc(C(=O)Nc2c(Cl)cncc2Cl)ccc1OC |
| 126 to 127 | Cc1cc(C)nc(N(C(=O)C(Cl)(Cl)Cl)c2ccccc2)n1 |
| 124 to 126 | CS(=O)(=O)c1cccc(C/C=C(/F)CN2C(=O)c3ccccc3C2=O)c1 |
| 191 to 193 | COC(=O)c1cc2ccc(C(=O)NCCc3ccccn3)cc2[nH]1 |
| 146 to 155 | CN(C(=O)CNC(=O)OC(C)(C)C)c1ccc(OCC(=O)O)cc1 |
| 66 to 68 | Cc1ncccc1NC(=NC#N)NC(NC(=O)CCCc1cccs1)C(C)(C)C (centres undefined) |
| 126 | CCCCCc1c(C(C)C)nc(C(C)C)c(CO)c1-c1ccccc1O |
| 93 to 95 | CN(C=O)c1cc(F)ccc1C(=O)COC(=O)c1ccccc1 |
| 190 | CC(=NO)c1ccc(N2CC(CO)OC2=O)cc1 (centres undefined) |
| 260 to 262 | Cc1cc(Nc2cncc(Nc3cccc(C#N)c3)n2)n[nH]1 |
| 55 to 56 | CC(C)n1cnc2c(Nc3cccc(Cl)c3)nc(NCCN)nc21 |
| 61 | CC[C@@](O)(CC(=O)N1C(=O)O[C@@H](c2ccccc2)[C@H]1c1ccccc1)c1ccnc(OC)c1COCc1ccccc1 |
| 132 to 133 | Cc1c(NC(=O)c2ccc(OC[C@@H]3CCCO3)cc2F)ccc2cc(CNCC(C)(C)O)n(C)c12 |
| 198 to 200 | CCOC(=O)c1nn(-c2ccc(Br)cc2)c(=O)c2c(N)scc12 |
| 138 to 140 | COc1cc(CC2(Cc3ccnc(OC)c3)c3ccccc3-c3ncccc32)ccn1 |
| 88 to 112 | Cc1cc(O)c(C)c(C)c1OC(=O)C(C)(C)C |
| 180 to 181 | Cc1ccccc1CC(=NC#N)NC(NC(=O)Cc1ccc2c(c1)OCCO2)C(C)(C)C (centres undefined) |

| melting point [°C] | Compound |
| --- | --- |
| 181 to 182 | O=C(Nc1ccc2[nH]ccc2c1)c1ccco1 |
| 86 to 87 | CC(=O)c1cc(CC2CO2)c(OCCCCC#N)cc1O (centres undefined) |
| 175 to 180 | COc1cc(O)ccc1/C=C/C(=O)CC(=O)/C=C/c1cc(OCc2ccccc2)ccc1-c1ccccc1 |
| 115 to 128 | COc1ccccc1NC(=O)Nc1nc(Nc2ccccc2-c2ccccc2)nc(N(CCC(=O)O)Cc2cccc(F)c2)n1 |
| 162 to 163 | COC(=O)C1=C(C)NC(=O)N(C(=O)OC(C)C)C1c1cccc(Cl)c1Cl (centres undefined) |
| 143 to 144 | O=C(O)CCc1cnoc1-c1cc(Cl)cc(Cl)c1 |
| 68 to 72 | CC(=O)Nc1ccc(C(C)=O)cc1CN(C)C |
| 94 to 95 | COc1cccnc1C(O)c1cc(F)ccc1F (centres undefined) |
| 88 | CC(C)(C)OC(=O)C(Br)c1ccc(Cl)c(Cl)c1 (racemic) |
| 38 to 39 | COCOc1ccc(C(C)=O)c(O)c1 |
| 19.3 | C=Cc1ccc(-c2ccccn2)cc1 |
| 155 to 156 | O=c1cc(-c2ccoc2)c2ccc(CBr)cc2o1 |
| 138 to 140 | COC(=O)N1CC(Cc2ccc(OC)c(OC3CCCC3)c2)N(C(=O)OC)C1=O (centres undefined) |
| 162 to 166 | Cc1ccc(NC(=O)c2cccc(N3CCOCC3)c2)cc1NC(=O)c1cccc(OC2CCNCC2)c1 |
| 105 to 113 | CCCn1cc(Cc2ccc(C(=O)O)cc2OC)c2cc(CCNC(=O)N3CCOCC3)ccc21 |
| 192 to 194 | COC(=O)[C@H](Cc1ccccc1)NC(=O)[C@H](Cc1ccccc1)NC(=O)[C@H](CC(N)=O)NC(=O)OC(C)(C)C |
| 148 to 150 | COc1cccc2c1CC(C(=O)O)N2C(=O)OC(C)(C)C (centres undefined) |
| 224 to 226 | COc1nc2sccc2c2nc(S(=O)(=O)Nc3c(Cl)cccc3Cl)nn12 |
| 150 to 151 | CCOC(=O)Nc1ccc(NCc2coc3ccc(F)cc23)cc1N |
| 243 to 245 | CC(C)(C)OC(=O)C(CCC(N)=O)N1Cc2c(OCc3ccc(CN4C5CCC4COC5)cc3)cccc2C1=O (centres undefined) |
| 120 to 122 | CC(C)(C)OC(=O)N1CCN(C(=O)Cn2sc3ccccc3c2=O)CC1 |
| 213 to 215 | CC(C)(C)OC(=O)N1CCN(S(=O)(=O)c2ccc(S(=O)(=O)c3ccc4cc(Br)ccc4c3)cc2)CC1 |

Reference: a melting point compilation (Tetko et al.; mined from patent text by program, amines drawn as free bases though some values may be those of a salt)
